The source of these data is US6680331B2, “Lactam and thiolactam derivatives as anesthetic and conscious sedation agents” (priority 2001, dated 2004).

Values joined by “and” are separate entries in the source; they are usually repeats but may differ in a detail not shown here. Identical values can stand only once.

In series [1] the test system is Female ICR mice. Briefly: Loss of righting reflex (LORR) model of anesthesia. It counts as in vivo. From the text:
Female ICR mice, weighing between 18 and 31 g were used for all experiments. The animals were housed four in a cage in a […] light/dark cycle with free access to food and water. Animal weight at the time of the experiment ranged from 22 to 33 g. On the day of the experiment, animals were brought to the lab in groups of 6-8. They were not allowed food or water for the duration of the testing period. After each experiment, animals were sacrificed.
Diethyl lactam was synthesized as described previously (Example 1 and U.S. Pat. Nos. 6,066,666 and 5,776,959) and dissolved in 0.9% saline. All drugs were given by intraperitoneal (i.p.) injections in a volume of 0.01 ml/g body weight.
The anesthetic effect was determined using the loss of righting reflex (LORR) model of anesthesia. […] The time to onset and duration of loss of righting reflex was recorded for each animal.
Animals were given diethyl lactam at doses of 250, 325, 375, 500, 625, 750, 875 and 1000 mg/kg of body weight, and the time to regain the righting reflex (RR) as well as the duration of LORR were measured (Table 1). […] Other movements include a shiver (one mouse), a head twitch (one mouse), face vibrations (one mouse) and repetitive hindlimb scratching (one mouse).

The subject of series [2] is mice. To be noted: cited from earlier work.
[3] abbreviates: 500 mg/kg i.p., mice, ± one standard deviation.
[4] abbreviates: 625 mg/kg i.p., mice, ± one standard deviation.
[5] abbreviates: 750 mg/kg i.p., mice, ± one standard deviation.
Where [6] appears, read: 1000 mg/kg i.p., mice, ± one standard deviation.
Where [7] appears, read: 1000 mg/kg i.p., two mice excluded from the trial, listed as diethyl lactam.

Regarding `CCC1(CC)CCNC1=O` [DiethylABL, 3,3-diethyl-2-pyrrolidinone], in series [1] (250 mg/kg i.p., mice), the “Duration of LORR” value is listed as 0 min and the “LORR (time to onset of loss of righting reflex)” value is reported as “none at 30 min”. Moreover, in series [1] (325 mg/kg i.p., mice), the “Duration of LORR” value was 0 min and the “LORR (time to onset of loss of righting reflex)” value is on record as “none at 30 min”. For the same compound, in series [1] (375 mg/kg i.p., mice), the “Duration of LORR” value was found to be 0 min and the “LORR (time to onset of loss of righting reflex)” value is listed as “none at 30 min”. In series [1] (500 mg/kg i.p., five mice), the Face vibrations entry was “one mouse”, the Head twitch result is on record as “one mouse”, the “Mice seen to twitch” value was “Three of the five” and the Repetitive hindlimb scratching result is given as “one mouse”. Besides, the Shiver result in series [1] (500 mg/kg i.p., five mice) is given as “one mouse”. Moreover, the “Physical movements observed during the experiment” value in series [1] (500 mg/kg i.p., mice) was “various physical movements”. Moreover, in series [1] (setting [3]), the “Duration of LORR” value is 38.8 ± 11.6 min, the “LORR (time to onset of loss of righting reflex)” value was 2.4 ± 1.8 min and the “Regain RR” value worked out at 41 ± 12 min. In series [1] (setting [4]), the “Duration of LORR” value was determined as 51.3 ± 16.2 min, the “LORR (time to onset of loss of righting reflex)” value is 1.7 ± 0.8 min and the “Regain RR” value is listed as 53 ± 16 min. For the same compound, in series [1] (setting [5]), the “Duration of LORR” value came to 109.7 ± 2.0 min, the “LORR (time to onset of loss of righting reflex)” value worked out at 0.9 ± 0.3 min and the “Regain RR” value turned out to be 110 ± 2 min. For the same compound, in series [1] (875 mg/kg i.p., mice), the “Duration of LORR” value is reported as greater than 360 min, the “LORR (time to onset of loss of righting reflex)” value is listed as 0.8 min and the “Regain RR” value was greater than 360 min. In series [1] (setting [6]), the “Duration of LORR” value worked out at 1470.0 ± 756 min, the “LORR (time to onset of loss of righting reflex)” value stood at 2.0 ± 2.1 min and the “Regain RR” value is on record as 1470 ± 85 min. Moreover, in series [1] (setting [7]), the “LORR (time to onset), individual mice excluded as outliers” value was 2.4 min and 4.2 min; the “LORR duration, individual mice excluded as outliers” value is 156.6 min and 170.3 min; the “Regaining RR, individual mice excluded as outliers” value was 159 min and 174.5 min. Also, the “Time of death after injection” value in series [1] (1000 mg/kg i.p., two mice included in the trial, listed as diethyl lactam) was 7.3 min and 4.0 min.

Consider `CCC1(CC)CCCNC1=O` [3,3-diethyl-2-piperidinone], for which the Sedative activity entry in series [2] is “only weak sedative activity”.
